Key:
Experiment in all cases: MTSEA thiol modification rate (SCAM) from ACh-evoked currents in oocytes
Type in all cases: cell-based, chick
[1] = molecular target: α7 AChR N^52C mutant (C^115A/L^247T background) (Gallus gallus, UniProt P22770, C138A/L270T/N75C); conditions: ± standard error
Method: (§1) ACh-evoked current amplitudes decreased following brief, repeated exposure to a limiting concentration of MTSEA (5 μM, 15 seconds). To ensure that the modification reactions were complete, all rate measurements included a final prolonged application of ~100-fold higher concentrations of MTSEA (Fig. 3A and 3B, right). Currents measured following this application represent the endpoint of the reaction between MTSEA and receptors. When the same protocol included Ba^2+ pretreatment and co-application with MTSEA (see Methods), the decreases in current amplitudes were slowed but the same endpoint was obtained (Fig. 3B). Normalized current amplitudes were plotted as a function of the cumulative time of exposure to MTSEA, and pseudo first-order rates were extracted from the single-exponential fits (Fig. 3C).
(§2) Figure 3 Barium slows the rate of MTSEA modification at M^37C. Example of experimental paradigm used to assess Ba^2+ effects on modification rates. […] Endpoints of MTSEA modification are determined by prolonged application of 500 μM MTSEA (right). (B) The same protocol, including Ba^2+ pretreatment and co-application with MTSEA. Current traces are truncated in both (A) and (B) between consecutive MTSEA applications; in all cases the currents were allowed to return to baseline prior to the next application of MTSEA ± ACh. (C) Peak current amplitudes from (A) and (B) are normalized and plotted versus total MTSEA exposure time. Data from this single experiment (no error bars) are fitted to a single-exponential decay (solid line) to extract an apparent pseudo first-order rate constant. The pseudo first-order rate constants calculated in this experiment were 0.011 s^-1 and 0.0019 s^-1 for control (A) and +Ba^2+ (B) measurements, respectively. Second-order rate constants are calculated from these values (Figures 4–6; Table 2).
(§3) Oocytes were superfused in normal extracellular solution containing a reduced Ca^2+ concentration (ESLC; 96 mM NaCl, 2 mM KCl, 1 mM MgCl2, 0.1 mM CaCl2, and 10 mM HEPES, pH 7.5). This solution minimized Ca^2+ influx and eliminated Ca^2+-activated chloride currents. Two-electrode voltage clamp was performed with a GeneClamp 500B controlled by pCLAMP8 software (Molecular Devices, Sunnyvale, CA). Electrodes were filled with 3 M KCl contacting Ag-AgCl wires and had resistances of 0.5 to 2.0 MΩ. Currents were recorded at a constant holding potential of -60 mV. Currents were low pass filtered at 50 Hz and sampled at 100 Hz. Agonist dose-response curves were obtained as described previously, and data were fit to the Hill equation using Origin software (Microcal Software, Northampton, MA).
(§4) MTSEA was prepared daily in distilled water and stored on ice. Stock solution was diluted to the appropriate working concentration in ESLC immediately before each application. […] The limiting dose, yielding 20–40% of the maximal MTSEA effect, was identified for each mutant. […] To measure the effect of Ba^2+ on modification rates we pre-applied 10 mM Ba^2+ for 30 seconds prior to co-application of 10 mM Ba^2+ plus MTSEA. This concentration of Ba^2+ is equivalent to an approximate […] for the modulatory effects in both parental and mutant AChRs. Kinetic data were analyzed as described previously; rate data were fit to a single exponential to extract a pseudo-first order rate constant; this was divided by the MTSEA concentration used to determine the second order rate constant for thiol modification.

[2] = molecular target: α7 AChR N^170C mutant (C^115A/L^247T background) (Gallus gallus, UniProt P22770, C138A/L270T/N193C); conditions: ± standard error
Method: as §1, §2, §3, §4

[3] = molecular target: α7 AChR E^44C mutant (C^115A/L^247T background) (Gallus gallus, UniProt P22770, C138A/E67C/L270T)
Method: as §1, §2, §3, §4

[4] = molecular target: α7 AChR E^172C mutant (C^115A/L^247T background) (Gallus gallus, UniProt P22770, C138A/E195C/L270T); conditions: ± standard error
Method: as §1, §2, §3, §4

[5] = molecular target: α7 AChR M^40C/E^172Q mutant (C^115A/L^247T background) (Gallus gallus, UniProt P22770, C138A/E195Q/L270T/M63C); conditions: ± standard error
Method: as §1, §2, §3, §4

[6] = molecular target: T1, α7 AChR M^40C mutant (C^115A/L^247T background) (Gallus gallus, UniProt P22770, C138A/L270T/M63C); conditions: ± standard error
T1 construct: expressed in transfected cells; host or cells: Xenopus laevis oocytes injected with cRNA
Method: as §1, §2, §3, §4

[7] = molecular target: α7 AChR M^37C mutant (C^115A/L^247T background) (Gallus gallus, UniProt P22770, C138A/L270T/M60C); conditions: for pseudo first-order rate constant of MTSEA modification: 5 μM MTSEA, single experiment
Method: as §1, §2, §3, §4

[8] = MTSEA + 10 mM Ba^2+ (30 s pre-application)
[9] = co-expression with human RIC-3, MTSEA + 10 mM Ba^2+ (30 s pre-application)
[10] = co-expression with human RIC-3, MTSEA + ~EC110 ACh
[11] = co-expression with human RIC-3, MTSEA alone
[12] = MTSEA + 10 mM Ba^2+ (30 s pre-application), ± standard error
[13] = MTSEA + ~EC110 ACh, ± standard error

Q: CS(=O)(=O)SCCN [MTSEA, 2-aminoethylmethane thiosulfonate] was tested. Which “MTSEA modification rate (second-order rate constant), + Ba^2+” value (“MTSEA modification rate … + Ba^2+” for short) [1, 8] did it give?
A: 0.26 ± 0.02 (7) × 10^3, M^-1 S^-1

Q: And the “MTSEA modification rate (second-order rate constant), + ACh” value (from here on “MTSEA modification rate … + ACh”) ([1]; MTSEA + ~EC110 ACh)?
A: 1.4 ± 0.04 (7) × 10^3, M^-1 S^-1

Q: What about the “MTSEA modification rate (second-order rate constant), control” value (“MTSEA modification rate … control” below) ([1]; MTSEA alone) of the same molecule?
A: 0.40 ± .08 (9) × 10^3, M^-1 S^-1

Q: What about the “MTSEA modification rate … + Ba^2+” value [2, 9] of the same molecule?
A: 3.7 ± 0.06 (9) × 10^3, M^-1 S^-1

Q: What about the “MTSEA modification rate … + ACh” value [2, 10] of the same molecule?
A: 5.7 ± 0.1 (7) × 10^3, M^-1 S^-1

Q: And the “MTSEA modification rate … control” value [2, 11]?
A: 3.3 ± .05 (7) × 10^3, M^-1 S^-1

Q: What about the “MTSEA modification rate … + Ba^2+” value [3, 12] of the same molecule?
A: 9.3 ± 0.1(8) × 10^3, M^-1 S^-1

Q: What about the “MTSEA modification rate … + ACh” value [3, 13] of the same molecule?
A: 0.90 ± 0.05 (4) × 10^3, M^-1 S^-1

Q: And the “MTSEA modification rate … control” value ([3]; MTSEA alone, ± standard error)?
A: 23 ± 0.7 (4) × 10^3, M^-1 S^-1

Q: What about the “MTSEA modification rate in the presence of Ba^2+ compared to that in the presence of ACh” value ([3]; higher with Ba^2+) of the same molecule?
A: ~ 10 fold

Q: And the “MTSEA modification rate … + Ba^2+” value [4, 9]?
A: 7.3 ± 0.3 (6) × 10^3, M^-1 S^-1

Q: What about the “MTSEA modification rate … + ACh” value [4, 10] of the same molecule?
A: 3.5 ± 0.1 (5) × 10^3, M^-1 S^-1

Q: What about the “MTSEA modification rate … control” value [4, 11] of the same molecule?
A: 15 ± 0.4 (5) × 10^3, M^-1 S^-1

Q: What about the “MTSEA modification rate … + Ba^2+” value [5, 9] of the same molecule?
A: 2.0 ± 0.3 (6) × 10^3, M^-1 S^-1

Q: What about the “MTSEA modification rate … + ACh” value [5, 10] of the same molecule?
A: 1.3 ± 0.1 (5) × 10^3, M^-1 S^-1

Q: And the “MTSEA modification rate … control” value [5, 11]?
A: 14 ± 0.5 (5) × 10^3, M^-1 S^-1

Q: And the “MTSEA modification rate … + Ba^2+” value [6, 8]?
A: 2.8 ± 0.05 (7) × 10^3, M^-1 S^-1

Q: And the “MTSEA modification rate … + ACh” value ([6]; MTSEA + ~EC110 ACh)?
A: 2.2 ± 0.4 (3) × 10^3, M^-1 S^-1

Q: What about the “MTSEA modification rate … control” value ([6]; MTSEA alone) of the same molecule?
A: 16 ± 0.2 (13) × 10^3, M^-1 S^-1

Q: What about the “pseudo first-order rate constant of MTSEA modification” value ([7]; +Ba^2+) of the same molecule?
A: 0.0019 s⁻¹

Q: What about the “pseudo first-order rate constant of MTSEA modification” value ([7]; control) of the same molecule?
A: 0.011 s⁻¹

Q: What about the “MTSEA modification rate … + Ba^2+” value [7, 12] of the same molecule?
A: 0.40 ± 0.02 (5) × 10^3, M^-1 S^-1

Q: What about the “MTSEA modification rate … + ACh” value [7, 13] of the same molecule?
A: 0.30 ± 0.05 (4) × 10^3, M^-1 S^-1

Q: And the “MTSEA modification rate … control” value ([7]; MTSEA alone, ± standard error)?
A: 2.4 ± .03 (10) × 10^3, M^-1 S^-1
